In a melting point compilation (Tetko et al.) one finds melting point data, which are given here for 124 molecules.

Structures are written as SMILES.

Turning to `Cc1ccc(-n2c(S)nnc2-c2ccccn2)c(C)c1`, the melting point (usually the temperature, or range, at which the solid turns liquid) was in the range of 234 to 236 °C.

Molecule `O=C1CNC(=O)N1CCBr` yielded a melting point of 134 to 136 °C.

The molecule `NNC(=O)NCCc1cccs1` returned a melting point of 90 to 92 °C. In the case of `COc1ccc(C(C)(C#N)NC(=O)C(F)(F)F)cc1OC` (centres undefined) it was 145 to 147 °C; in that of `Cc1cc(C(=O)O)nc(-c2ccc(Cl)cc2)n1`, 163 to 165 °C; in that of `Cc1c(C(=O)O)cc(Br)cc1S(=O)(=O)Cl`, 139 to 141 °C. On to `CN(CC(=O)N1CCCC(C(=O)O)C1)c1ccc(Cl)cn1` (centres undefined), for which the melting point was in the range of 184 to 186 °C. The same measure for `O=C(O)c1ccccc1N1CCCCC1`: 59 to 61 °C; for `Cc1ccc(C(=O)N=[N+]=[N-])o1`: 33 to 35 °C. The same measure for `CC(CC(=O)c1cccc(Br)c1)C(=O)O` (centres undefined): 95 to 97 °C; for `Cc1ccc(SC2=C(C(=O)O)CCCC2)cc1`: 199 to 201 °C; for `O=C(O)c1cc2cc(Br)sc2[nH]1`: 164 to 166 °C. In the case of `O=c1[nH]c(CCl)nc2c(Br)cc(Br)cc12` it was 248 to 252 °C; in that of `CSC(=NS(C)(=O)=O)SC`, 88 to 90 °C; in that of `O=C(O)C1(c2cccs2)CCCCC1`, 146 to 148 °C. For the molecule `Clc1nncc2ccoc12`, the melting point lay within 117 to 119 °C. Turning to `Nc1ccc(Cl)c(C(=O)Nc2ccccc2)c1`, the melting point was in the range of 115 to 117 °C. For the molecule `Cc1cc(O)cc(=O)n1CCC(=O)O`, the melting point was 172 to 174 °C.

Molecule `Cc1ccccc1CNc1ccccc1N` yielded a melting point of 71 to 73 °C. Molecule `CC(Cl)C(=O)NC1CC1` (centres undefined) had a melting point of 67 to 71 °C. In the case of `COc1ccc(C(C)=CC(=O)O)cc1` it was 108 to 110 °C; in that of `CCOC(=O)c1cc2c(C)cc(C)cc2[nH]1`, 119 to 121 °C. The same measure for `CC1(c2ccc(S(C)(=O)=O)cc2)NC(=O)NC1=O` (centres undefined): 228 to 230 °C; for `O=C(O)c1ccccc1COc1ccccc1C(=O)O`: 199 to 201 °C. `CC1CNc2cccnc2N1` (centres undefined) registered a melting point of 110 to 112 °C.

With `N#CCCN1C(=O)c2ccccc2C1=O`, the melting point lay within 153 to 155 °C. The same measure for `COC(=O)c1ccc(Sc2ccc(Cl)cn2)c(N)c1`: 121 to 123 °C. In the case of `OC1CC2CCCC(C1)N2Cc1ccccc1` (centres undefined) it was 57 to 59 °C. The same measure for `ClCc1nc(-c2cccnc2)no1`: 87 to 89 °C; for `O=C(O)c1cc(-c2ccc3c(c2)CCO3)no1`: 235 to 237 °C. `O=C(O)CN1C(=O)CCC1=O` yielded a melting point of 91 to 93 °C.

For the molecule `Cc1nnc(-c2ccccc2N)o1`, the melting point is 145 to 147 °C.

Regarding `Nc1cnccc1SCCCO`, the melting point was 71 to 73 °C. In the case of `Cc1oc(C(N)=O)cc1C(=O)CCl` it was 197 to 199 °C; in that of `Nc1c(Cl)cc(Br)cc1C(=O)O`, 233 to 235 °C; in that of `CN(C)Cc1cccc(N)c1`, 40 to 42 °C. The same measure for `COc1ccc([N+](=O)[O-])cc1S(=O)(=O)Cl`: 85 to 87 °C; for `NCCCN1C(=O)NC2(CCCC2)C1=O`: 129 to 131 °C. In the case of `CC(Cl)c1nc2ccccc2c(=O)[nH]1` (centres undefined) it was 250 to 252 °C; in that of `NNS(=O)(=O)c1ccc(OC(F)(F)F)cc1`, 105 to 107 °C. As for `CC(=O)N1CCC(C(=O)O)C1` (centres undefined), the melting point was 145 to 147 °C. The same measure for `O=C(O)Cc1cc2c(cc1Br)OCCO2`: 220 to 222 °C. In the case of `Cn1cc([N+](=O)[O-])cn1` it was 91 to 93 °C; in that of `Nc1ccc(Oc2ccc(F)cc2)cn1`, 74 to 76 °C.

In turn, `COc1ccc(CCNc2nnc(S)s2)cc1OC` displayed a melting point of 189 to 191 °C. In the case of `c1csc(-c2ncc[nH]2)c1` it was 191 to 193 °C; in that of `Nc1nccnc1Br`, 129 to 131 °C.

`O=Cc1ccc(Cl)nc1` gave a melting point of 75 to 77 °C. The same measure for `Cn1cncc1C(N)=O`: 178 to 180 °C; for `Cc1nc2cc(N)ccc2n1C`: 164 to 166 °C; for `NC1CCCc2[nH]ccc21` (centres undefined): 83 to 85 °C. The same measure for `NC1CCN(c2ccc(C(F)(F)F)cc2)C1=O` (centres undefined): 132 to 134 °C. For the molecule `Cc1cnc(Cl)cc1O`, the melting point was in the range of 173 to 175 °C. The same measure for `NCc1cccc(NC(N)=O)c1`: 143 to 145 °C; for `Cc1cc(C)c(C(=O)CCl)c(C)c1C(=O)CCl`: 136 to 138 °C; for `Cc1ccc(C(N)C(=O)O)cc1` (centres undefined): 269 to 271 °C. The same measure for `COc1cc(NS(=O)(=O)c2ccc(N)cc2OC)cc(OC)c1`: 177 to 179 °C; for `CCOC(=O)c1ncn(-c2ccccc2)n1`: 49 to 51 °C; for `O=C(Cc1nc2ccccc2[nH]1)C(F)(F)F`: 249 to 251 °C. The same measure for `O=[N+]([O-])c1ccc(O)c(-n2cnnn2)c1`: 199 to 201 °C; for `NC(C(=O)O)c1cccc(C(F)(F)F)c1` (centres undefined): 192 to 194 °C; for `O=c1cc(CCl)c2cc3c(cc2o1)CCC3`: 142 to 144 °C. `CC(=O)Nc1nc(C)c(S(=O)(=O)Cl)s1` showed a melting point of 158 to 160 °C.

`NC(=O)C(N)C(N)=O` yielded a melting point of 171 to 173 °C. The same measure for `NC(=S)c1cnc2ccccn12`: 214 to 216 °C. In the case of `CCC(C)Nc1ccc(C(N)=O)cc1` (centres undefined) it was 113 to 115 °C; in that of `O=C(O)CSc1nccn1-c1ccc(C(F)(F)F)cc1`, 119 to 121 °C; in that of `Cc1ccc(NC2CCCCC2)nc1`, 89 to 91 °C.

As for `OCCNCc1ccc(Cl)c(Cl)c1`, the melting point was in the range of 54 to 56 °C. Molecule `O=S(=O)(Cl)c1c[nH]cn1` returned a melting point of 164 to 166 °C. The same measure for `CC(CO)Nc1nc2ccccc2[nH]1` (centres undefined): 174 to 176 °C; for `Cc1cc(C2(C)NC(=O)NC2=O)c(C)o1` (centres undefined): 144 to 146 °C; for `CC(C)(C(=O)O)S(=O)(=O)c1ccc(Br)cc1`: 162 to 164 °C.

With `Cc1cc(OCC(=O)O)no1`, the melting point was in the range of 123 to 125 °C. In the case of `O=C(NC1CCCC1)c1cnc(Cl)c(Cl)c1` it was 159 to 161 °C. The molecule `CCOC(=O)c1ccc(S(N)(=O)=O)nc1` came in with a melting point of 114 to 116 °C. The same measure for `CCn1c(=O)[nH]c2ccccc21`: 120 to 124 °C; for `CC1CCCC(C)N1C(=O)c1cc(Cl)ccc1N` (centres undefined): 169 to 171 °C; for `Oc1ccc(CN2CCCC2)c2cccnc12`: 112 to 114 °C. As for `CC(O)c1ccc(NC(=O)c2ccccc2)cc1` (centres undefined), the melting point was in the range of 164 to 166 °C.

Regarding `O=C(O)c1cccc(NC(=O)c2cccnc2)c1`, the melting point is 304 to 306 °C.

The molecule `CCCCC1NC(=O)NC1=O` (centres undefined) showed a melting point of 139 to 141 °C. The same measure for `O=C(O)c1ccc(=O)n(-c2ccccc2F)n1`: 199 to 201 °C; for `Nc1cccc(-c2cc[nH]n2)c1`: 137 to 139 °C; for `O=C(Nc1ccc(Cl)cn1)OCC(F)(F)F`: 158 to 160 °C. The same measure for `CN(C)c1ccc(C#N)cc1F`: 34 to 36 °C; for `Nc1cccnc1OCc1ccccc1`: 51 to 53 °C. The same measure for `FC(F)(F)c1n[nH]c2ccncc12`: 227 to 229 °C. For the molecule `COc1ccc(S(=O)(=O)Nc2ncc(Br)s2)cc1`, the melting point is 132 to 134 °C.

Molecule `O=C(O)c1cc(S(=O)(=O)NCCOc2ccccc2)ccc1Cl` displayed a melting point of 169 to 171 °C. In the case of `O=C(O)Cc1coc(-c2ccc(F)c(F)c2)n1` it was 144 to 146 °C.

With `CNCC(O)COc1ccc2c(c1)OCO2` (centres undefined), the melting point lay within 93 to 95 °C. In the case of `CCOc1ccc(S(=O)(=O)N(C)c2ccc(O)cc2)cc1`, the melting point lay within 129 to 133 °C.

With `N#CCc1nc2scc(C3CC3)c2c(=O)[nH]1`, the melting point fell in the range of 284 to 286 °C. In turn, `COC(=O)c1c(CC(=O)O)[nH]c(C(C)=O)c1C` registered a melting point of 205 to 207 °C. In the case of `CC(=O)Nc1cccc(C#N)c1` it was 133 to 135 °C; in that of `O=S1(=O)N=C2CCCCCN2C(CCl)N1` (centres undefined), 181 to 183 °C.

For the molecule `NC(=O)c1ccc(=O)[nH]c1`, the melting point lay in the range of 316 to 318 °C. In the case of `O=Cc1ccc(-c2cccc(F)c2)s1` it was 101 to 103 °C; in that of `Oc1ccccc1-c1ccn[nH]1`, 95 to 97 °C; in that of `CCN1N=C(C(F)(F)F)CC1=O`, 169 to 171 °C. In the case of `O=S(=O)(Cc1ccccc1)N1CCNCC1` it was 129 to 131 °C; in that of `Ic1n[nH]c2ccsc12`, 174 to 176 °C; in that of `COC(=O)C1CCC(C(=O)O)CC1` (centres undefined), 85 to 87 °C. In the case of `COC1(OC)CC(CO)(CO)C1` it was 48 to 50 °C. Turning to `Cc1nc2ccccc2n1CCO`, the melting point lay within 147 to 149 °C. The same measure for `Nc1cccc(C(=O)N2CCc3ccccc32)c1`: 125 to 127 °C; for `COc1ccc(NC(C)=O)cc1N`: 106 to 108 °C; for `CN(C)C(=O)c1ccc(O)cc1`: 156 to 158 °C. The same measure for `N#CC(NC(=O)c1ccccc1)C1CC1` (centres undefined): 91 to 93 °C; for `NS(=O)(=O)c1ccc([N+](=O)[O-])s1`: 139 to 141 °C. In the case of `CCCc1[nH]nc(C(=O)O)c1[N+](=O)[O-]` it was 158 to 160 °C.

Consider `CCc1ccc(C(C)(C)C(=O)O)cc1`, for which the melting point lay in the range of 52 to 54 °C.

As for `O=C(O)C1(c2ccc(O)cc2)CCOCC1`, the melting point was in the range of 170 to 172 °C. The same measure for `Cc1cc(C(=O)O)ccc1NC(=O)c1cccs1`: 199 to 201 °C; for `CCC1(c2ccc(O)cc2)NC(=O)NC1=O` (centres undefined): 279 to 281 °C; for `CC1(C)CC(=O)c2sc(N)nc2C1`: 212 to 214 °C. The same measure for `CC1=CC=CC(=C2Nc3cc(F)ccc3N2C2CC2)C1=N`: 149 to 151 °C; for `CC(C)[C@H](NC(=O)c1c(F)cccc1F)C(=O)O`: 172 to 174 °C. The same measure for `COC(=O)c1noc(C)c1C(=O)c1ccccc1`: 90 to 92 °C; for `Cc1c(C(=O)O)sc2[nH]cnc(=S)c12`: 309 to 311 °C. Consider `Cn1cc([N+](=O)[O-])c(C(=O)O)n1`, for which the melting point lay within 162 to 164 °C. The same measure for `CSc1nc2nc(C)c(CC(=O)O)c(C)n2n1`: 275 to 277 °C.

The molecule `Cc1ccc(F)c(N)c1C(=O)O` registered a melting point of 114 to 116 °C.
